Experimental data reported in PMC10673058, “In Silico and In Vitro Search for Dual Inhibitors of the Trypanosoma brucei and Leishmania major Pteridine Reductase 1 and Dihydrofolate Reductase” (Molecules, 2023).
Read-outs that look alike come from different tables or passages of the source.

Columns and labels:
Type in all cases: biochemical
TbDHFR = molecular target: T1, TbDHFR (Trypanosoma brucei brucei, UniProt Q27783); assay: Spectrophotometric enzyme inhibition assay, recombinant TbDHFR
T1 construct: pET 11D::TbDHFRHis vector design for the recombinant overexpression of TbDHFR in E. coli; His; made in house; host or cells: E. coli BL21(DE3), vector pET 11D::TbDHFRHis
Protocol: Based on the in vitro assays against TbPTR1 and LmPTR1 performed in the previous works of our group, as well as the in silico results obtained from the current study, a total of 47 natural products were tested against the target enzymes.
The saturating conditions for TbDHFR and LmDHFR were determined using the diagrams depicted in Figures S17 and S19 in the Supplementary Materials.
(§1) The inhibitory effect of the selected natural products was investigated by testing the DMSO solution of each compound at a constant concentration of 100 μM for TbPTR1 and 50 μM for LmPTR1, TbDHFR, and LmDHFR, as well as hDHFR. The concentrations of the cofactor and substrates were set at the previously determined saturating conditions (Section 4.2.5). Each test compound was incubated for 20 min with the respective enzyme and NADPH to ensure a sufficient interaction time before the reaction was induced by the addition of the substrate. The enzymatic activity was determined in duplicates and correlated with a reference that contained just DMSO, instead of an inhibitor. The enzymatic activity of the reference was normalized to 100%.
(§2) The half-maximal inhibitory concentration (IC50) of the natural products was determined in triplicate, using at least five different inhibitor concentrations against a reference containing no inhibitor. The enzymatic activity was documented and analyzed and the IC50 value was determined by nonlinear regression using GraphPad Prism 9 (GraphPad Software Inc., La Jolla, CA, USA).

TbPTR1 [1] = molecular target: T2, TbPTR1 (Trypanosoma brucei brucei, UniProt O76290); assay: Spectrophotometric enzyme inhibition assay, recombinant TbPTR1; conditions: for EC50: read-out: EC50 TbPTR1 (footnote a)
T2 construct: His6 (N); made in house; host or cells: E. coli BL21 (DE3), vector pET 15b::TbPTR1His (strain from the group of M. Paola Costi, Modena)
T2 sequence (O76290 1-268): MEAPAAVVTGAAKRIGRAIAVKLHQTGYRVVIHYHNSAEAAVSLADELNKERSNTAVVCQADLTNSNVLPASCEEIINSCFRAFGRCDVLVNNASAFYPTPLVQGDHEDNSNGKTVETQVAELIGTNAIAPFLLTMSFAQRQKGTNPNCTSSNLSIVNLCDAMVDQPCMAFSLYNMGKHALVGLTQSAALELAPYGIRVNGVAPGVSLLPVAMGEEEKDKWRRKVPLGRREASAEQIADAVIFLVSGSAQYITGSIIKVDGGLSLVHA
Protocol: (§3) Based on the in vitro assays against TbPTR1 and LmPTR1 performed in the previous works of our group, as well as the in silico results obtained from the current study, a total of 47 natural products were tested against the target enzymes. […] The concentration-effect curves for the IC50 and EC50 values that were obtained in the present study are depicted in Supplementary Materials Figures S21–S42.
(§4) The used TbPTR1 concentration was 3.23 mg/mL, with a specific activity of 0.03 U/mg. The measurements were carried out using the enzyme’s individual saturating concentrations for folic acid (8 μM) and NADPH (150 μM) in Buffer A (50 mM Tris/HCl (pH 7.6), 250 mM NaCl). For LmPTR1, the protein concentration was 5.02 mg/mL and the specific activity was calculated to be 0.29 U/mg. Buffer B (50 mM NaH2PO4 (pH 6.0), 100 mM NaCl) was used for all LmPTR1 measurements and the saturating concentrations amounted to 50 μM of folic acid and 200 μM of NADPH. The saturating conditions of the PTR1 enzymes were determined using the diagrams depicted in Figures S16 and S18 in the Supplementary Materials.
as §1, §2

LmDHFR = molecular target: T3, LmDHFR (Leishmania major, UniProt P07382); assay: Spectrophotometric enzyme inhibition assay, recombinant LmDHFR
T3 construct: The DNA fragment encoding LmDHFR was amplified by Phusion DNA polymerase; His6 (N); made in house; host or cells: E. coli BL21(DE3), vector pET 11D::LmDHFRHis
T3 sequence (P07382 26-229 limits assumed): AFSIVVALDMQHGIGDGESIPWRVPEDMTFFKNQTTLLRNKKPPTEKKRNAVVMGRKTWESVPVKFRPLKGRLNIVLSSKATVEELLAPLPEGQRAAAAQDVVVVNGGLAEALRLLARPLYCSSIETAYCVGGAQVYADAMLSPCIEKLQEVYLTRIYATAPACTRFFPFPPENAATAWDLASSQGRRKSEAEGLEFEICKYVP
Protocol: as §3
The TbDHFR concentration was measured to be 0.04 mg/mL and a specific activity of 38.1 U/mg was calculated. The concentration of LmDHFR was 0.05 mg/mL with a specific activity of 56.2 U/mg. All measurements were carried out using the saturating concentrations for dihydrofolate (50 μM) and NADPH (150 μM) in Buffer C (50 mM Tris/HCl (pH 7.6), 250 mM NaCl, 10 mM BME). The saturating conditions for TbDHFR and LmDHFR were determined using the diagrams depicted in Figures S17 and S19 in the Supplementary Materials.
as §1, §2

LmPTR1 = molecular target: T4, LmPTR1 (Leishmania major, UniProt Q01782); assay: Spectrophotometric enzyme inhibition assay, recombinant LmPTR1
T4 construct: His6 (N); made in house; host or cells: E. coli BL21 (DE3), vector pET 15b::LmPTR1His (strain from the group of M. Paola Costi, Modena)
T4 sequence (Q01782 1-288): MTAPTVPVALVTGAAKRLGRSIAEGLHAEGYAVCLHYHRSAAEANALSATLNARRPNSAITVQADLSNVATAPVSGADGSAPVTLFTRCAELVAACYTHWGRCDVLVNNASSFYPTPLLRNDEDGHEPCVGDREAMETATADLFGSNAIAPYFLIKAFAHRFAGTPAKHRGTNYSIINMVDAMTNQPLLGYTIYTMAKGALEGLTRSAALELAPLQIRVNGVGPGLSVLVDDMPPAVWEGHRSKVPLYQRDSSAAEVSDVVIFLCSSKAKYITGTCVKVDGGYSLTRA
Protocol: as §3, §4, §1, §2

hDHFR = molecular target: T5, hDHFR (Homo sapiens, UniProt P00374); assay: Spectrophotometric enzyme inhibition assay, recombinant hDHFR (selectivity); conditions: for inhibition at 50 µM: set compound concentration of 50 μM, read-out: relative inhibition of hDHFR
T5 construct: His; host or cells: E. coli BL21 (DE3), vector pET 15b::hDHFRHis
T5 sequence (P00374 1-187): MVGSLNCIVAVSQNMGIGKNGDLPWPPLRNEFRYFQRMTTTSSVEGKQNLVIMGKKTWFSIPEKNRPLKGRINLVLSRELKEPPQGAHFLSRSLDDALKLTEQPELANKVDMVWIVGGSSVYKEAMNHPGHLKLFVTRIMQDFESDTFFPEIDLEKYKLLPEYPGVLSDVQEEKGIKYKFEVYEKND
Protocol: For 15 compounds, there was enough substance available to be tested in selectivity studies against hDHFR.
The used hDHFR concentration was 0.64 mg/mL, with a specific activity of 0.62 U/mg. All measurements were carried out using the saturating concentrations for dihydrofolate (100 μM) and NADPH (50 μM) in Buffer C (50 mM Tris/HCl (pH 7.6), 250 mM NaCl, 10 mM BME). The saturating conditions for hDHFR were determined using the diagrams depicted in Figure S20 in the Supplementary Materials.
as §1, §2

TbPTR1 [2] = molecular target: T2, TbPTR1; assay: Dilution assay for reversible/irreversible inhibition of TbPTR1; conditions: inhibitor concentration near IC50
Description: The catalytic center of TbPTR1 contains a cysteine residue (TbCys168) in close proximity to the substrate/inhibitor binding site. In our previous publication, we mentioned the possibility that Sesquiterpene Lactones 1 and 2 might interact as Michael acceptors with TbCys168 by covalent bond formation with its thiol group. Therefore, we have now subjected a selection of natural product inhibitors containing Michael acceptors (1, 2, 5, 17) to initial testing for irreversible inhibition, according to the dilution method described by Bisswanger (see Section 4.2.9).
In this method, the enzyme activity of the respective enzyme-inhibitor mixture is measured before and after a defined dilution (in this study, 1:2). In the absence of an inhibitor, dilution decreases the enzyme activity proportionally to the dilution factor. […] A reversible inhibitor, on the other hand, will dissociate upon dilution, resulting in a weaker decrease in activity than what corresponds to the dilution effect. In the presence of Inhibitors 1 and 2, the decrease in TbPTR1 activity upon the 1:2 dilution was almost proportional to the dilution factor, i.e., only 9.5% and 6.8% activity, respectively, were recovered compared to the reference. This would indeed support an irreversible mechanism of inhibition. […] However, further investigations on these compounds’ mechanisms of inhibition are under way.
To assign an either reversible or irreversible inhibition mechanism to selected compounds, the enzymatic activity of an enzyme-inhibitor mixture was determined before and after a defined dilution, using the reaction conditions described in Section 4.2.5 [16].
Two equivalent solutions with the respective enzyme and inhibitor combination were prepared, one of them being diluted with buffer in a 1:2 ratio shortly before the reaction was started by adding the substrate. The respective inhibitor concentration was set near the IC50 value. The substrate and cofactor concentrations were kept constant in both reaction mixtures. All measurements were carried out in duplicates against a reference containing DMSO instead of the inhibitor. […] If a reversible inhibitor was present, a higher degree of activity recovery (>>10%) could be observed than what corresponds to the dilution factor due to the partial dissociation of the inhibitor from the enzyme upon dilution. The percentual changes in the enzymatic activity of the undiluted and diluted test solution were compared and evaluated to decide the mechanism of inhibition.

T1 sequence (Q27783 28-238 limits assumed): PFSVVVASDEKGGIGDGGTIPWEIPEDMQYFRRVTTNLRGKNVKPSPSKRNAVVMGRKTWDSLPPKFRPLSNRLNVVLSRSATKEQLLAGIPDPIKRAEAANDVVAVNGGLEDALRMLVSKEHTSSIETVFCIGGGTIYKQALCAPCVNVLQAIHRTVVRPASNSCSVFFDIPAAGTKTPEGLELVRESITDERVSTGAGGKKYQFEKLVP

Row | Structure (SMILES) | IC50 (TbDHFR; read-out: IC50 TbDHFR) [µM] | IC50 (TbPTR1 [1]; read-out: IC50 TbPTR1) [µM] | IC50 (LmPTR1; read-out: IC50 LmPTR1) [µM] | IC50 (hDHFR) [µM] | further results
1 | OC[C@H]1O[C@@H](Oc2c(O)cc(O)cc2/C=C/c2ccc(O)cc2)[C@H](O)[C@@H](O)[C@@H]1O [Compound 10] | > 50 | 83.6 | > 50 |  | IC50 (LmDHFR; read-out: IC50 LmDHFR): > 50 µM
2 | CCC/C=C\C/C=C\CCCCCCCc1cccc(O)c1C(=O)O [Compound 11] | 0.2 | 20.1 | 10.2 | 2.4 | inhibition at 50 µM (hDHFR): > 50%; IC50 (LmDHFR; read-out: IC50 LmDHFR): 2.6 µM
3 | C=CC/C=C\C/C=C\CCCCCCCc1cccc(O)c1C(=O)O [Compound 12] |  | 21.7 |  |  | 
4 | COc1c(O)cc2c(=O)c3c(O)cc(O)c(CC=C(C)C)c3oc2c1CC=C(C)C [Compound 13] | 0.6 | 74.4 |  |  | 
5 | CC(C)=CCc1c(O)cc2oc3cc(O)c(O)c(CC=C(C)C)c3c(=O)c2c1O [Compound 14, g-mangostin] |  |  |  | 2.7 | IC50 (TbDHFR): 0.2 µM; inhibition at 50 µM (hDHFR): > 50%; IC50 (TbPTR1 [1]): 71 µM; IC50 (LmDHFR): 1.5 µM; IC50 (LmPTR1): 10 µM
6 | CC(C)=CCC/C(C)=C/COc1ccc2oc3cc(O)cc(O)c3c(=O)c2c1 [Compound 15] | 2.9 |  | > 50 |  | EC50 (TbPTR1 [1]): 32.4 µM
7 | CC(C)=CCc1c(O)ccc(C(=O)CCc2ccc(O)cc2)c1O [Compound 16] | 11.7 | 64.6 | > 50 |  | 
8 | O=c1[nH]c(=O)n([C@@H]2O[C@H](CO)[C@@H](O)[C@H]2O)c2nc(-c3ccc(Cl)cc3)cnc12 [Compound 18] | > 50 | 58.6 |  |  | 
9 | COc1ccc2c(c1)CCN=C2Cc1cc(OCc2ccccc2)c(OC)cc1C [Compound 19] | > 50 | 75.1 |  |  | 
10 | CCC(C)C(=O)c1c(O)c(C/C=C(\C)CCC=C(C)C)c(O)c2c([C@H](CC)OC(C)=O)cc(=O)oc12 (stereo partly drawn) [Compound 20, surangin B] | 2.9 | 28.3 |  | > 50 | EC50 (LmDHFR; read-out: EC50 LmDHFR (footnote a)): 4.7 µM; EC50 (LmPTR1; read-out: EC50 LmPTR1 (footnote a)): 35.1 µM
11 | COc1c(CC=C(C)C)c(O)c([C@H](CC(C)C)c2c(O)c(CC=C(C)C)c(O)c(C(C)=O)c2O)c(O)c1C(C)=O [Compound 21, acrovestone] | 2.1 |  | > 50 | 19.8 | inhibition at 50 µM (hDHFR): > 50%; EC50 (TbPTR1 [1]): 36.8 µM
12 | COc1cc(C2OC(=O)C3C(c4ccc(O)c(OC)c4)OC(=O)C23)ccc1O (stereo not drawn) [Compound 22] | > 50 |  | 30.2 | > 50 | EC50 (TbPTR1 [1]): 37.8 µM; IC50 (LmDHFR; read-out: IC50 LmDHFR): > 50 µM
13 | COc1cc(-c2oc3c(OC)c(O)cc(O)c3c(=O)c2OC)c(OC)c(OC)c1OC [Compound 23, 5,7-dihydroxy-3,3′,4′,5′,6′,8-hexamethoxyflavone] |  |  |  |  | TbPTR1 activity recovered upon 1:2 dilution compared to the reference (TbPTR1 [2]): about 33%
